# Experimental data: ChEMBL document CHEMBL6121011, “An oxidation-reduction-triggered thiamine disulfide-based prodrug of 10-hydroxycamptothecin for selective tumor cell locking and therapeutic delivery” (Eur J Med Chem, 2025)
# Active and inactive are the calls of the source. The calls are words filed in the database; no cut-off is given here.
# Legend:
# [1] = Drug localization in cytoplasm of mouse 4T1 cells at 20 uM measured after 2 hrs by CLSM analysis; type: ADME, subcellular; details: 4t1, 2 h
# [2] = Drug localization in mitochondria of mouse 4T1 cells at 20 uM measured after 2 hrs by CLSM analysis; type: ADME; details: 4t1, 2 h
# [3] = Drug internalization in mouse 4T1 cells assessed as green fluorescence in cytoplasm at 20 uM measured after 2 hrs by CLSM analysis; type: ADME, cell-based; details: 4t1, 2 h
# [4] = Drug internalization in mouse 4T1 cells assessed as green fluorescence in cytoplasm at 20 uM measured after 1 hr by CLSM analysis; type: ADME, cell-based; details: 4t1, 1 h
# [5] = Drug internalization in mouse 4T1 cells assessed as green fluorescence in cytoplasm at 20 uM measured after 8 hrs by CLSM analysis; type: ADME, cell-based; details: 4t1, 8 h
# 4T1 [6] = experiment: Antiproliferative activity against mouse 4T1 cells incubated for 48 hrs by CCK8 assay; type: functional, cell-based; details: 4T1, 48 h
# PC-3 = experiment: Antiproliferative activity against human PC-3 cells incubated for 48 hrs by CCK8 assay; type: functional, cell-based; details: PC-3, 48 h
# U-87 MG = experiment: Antiproliferative activity against human U-87 MG cells incubated for 48 hrs by CCK8 assay; type: functional, cell-based, U-87MG ATCC
# MCF7 = experiment: Antiproliferative activity against human MCF7 cells incubated for 48 hrs by CCK8 assay; type: functional, cell-based; details: MCF7, 48 h
# MDA-MB-231 = experiment: Antiproliferative activity against human MDA-MB-231 cells incubated for 48 hrs by CCK8 assay; type: functional, cell-based; details: MDA-MB-231, 48 h
# HepG2 = experiment: Antiproliferative activity against human HepG2 cells incubated for 48 hrs by CCK8 assay; type: functional, cell-based; details: HepG2, 48 h
# [7] = Antiproliferative activity against human MCF-10A cells incubated for 48 hrs by CCK8 assay; type: toxicity, cell-based
# 4T1 [8] = experiment: Induction of mitochondrial damage in mouse 4T1 cells assessed as increase in green fluorescence at 0.5 uM incubated for 24 hrs by JC-1 staining based CLSM analysis; type: functional, cell-based
# [9] = Toxicity in BALB/c mouse implanted with mouse 4T1 cells assessed as animal death administered intravenously once every two days at equivalent dose of 10 mg/kg of HCPT for 14 days; type: organism-based; details: in vivo, iv, 336 h, time 14 day
# [10] = Toxicity in BALB/c mouse implanted with mouse 4T1 cells assessed as damage in major organ tissues administered intravenously once every two days at equivalent dose of 10 mg/kg of HCPT for 14 days; type: organism-based; details: in vivo, iv, 336 h, time 14 day
# 4T1 [11] = experiment: Antitumor activity against mouse 4T1 cells implanted in BALB/c mouse assessed as tumor growth inhibition administered intravenously once every two days at equivalent dose of 10 mg/kg of HCPT for 14 days; type: functional, organism-based; details: route iv, time 14.0 day
# 4T1 [12] = experiment: Induction of intracellular ROS generation in mouse 4T1 cells at 0.5 uM incubated for 24 hrs by DCFH-DA probe based CLSM analysis; type: functional, cell-based
# [13] = Toxicity in BALB/c mouse implanted with mouse 4T1 cells assessed as body weight loss administered intravenously once every two days at equivalent dose of 10 mg/kg of HCPT for 14 days; type: organism-based; details: in vivo, iv, 336 h, time 14 day
# 4T1 [14] = experiment: Anti-metastatic activity in mouse 4T1 cells assessed as wound closure at 0.5 uM incubated for 24 hrs by scratch-wound assay (reference value: 42 %); type: functional
# [15] = Toxicity in BALB/c mouse implanted with mouse 4T1 cells assessed as animal death at 10 mg/kg, iv once every two days measured for 9 to 10 days; type: organism-based; details: in vivo, time 9-10 day
# [16] = Cmax in Sprague-Dawley rat at 10 mg/kg, iv by HPLC-MS analysis; type: ADME, organism-based; details: in vivo
# 4T1 [17] = experiment: Antitumor activity against mouse 4T1 cells implanted in BALB/c mouse assessed as tumor growth inhibition at 10 mg/kg, iv once every two days for 14 days; type: functional, organism-based; details: time 14.0 day
# [18] = AUC in Sprague-Dawley rat at 10 mg/kg, iv by HPLC-MS analysis; type: ADME, organism-based; details: in vivo
# [19] = Prodrug stability in 10 mM H2O2 assessed as compound remaining at 18 uM measured after 12 hrs by RP-HPLC analysis; type: ADME
# [20] = AUC in Sprague-Dawley rat at 24 mg/kg, iv by HPLC-MS analysis; type: ADME, organism-based; details: in vivo
# 4T1 [21] = experiment: Antitumor activity against mouse 4T1 cells implanted in BALB/c mouse assessed as reduction in tumor weight administered intravenously once every two days at equivalent dose of 10 mg/kg of HCPT for 14 days; type: functional, organism-based; details: route iv, time 14.0 day
# [22] = Prodrug stability in 5 mM GSH assessed as compound remaining at 18 uM measured after 12 hrs by RP-HPLC analysis; type: ADME
# [23] = Prodrug stability in 5 uM GSH assessed as compound remaining at 18 uM measured after 24 hrs by RP-HPLC analysis; type: ADME
# [24] = Cmax in Sprague-Dawley rat assessed as fold change at 24 mg/kg, iv by HPLC-MS analysis relative to HCPT; type: ADME, organism-based; details: in vivo
# 4T1 [25] = experiment: Antitumor activity against mouse 4T1 cells implanted in BALB/c mouse assessed as increase in pyknotic cells with highly condensed nuclei administered intravenously once every two days at equivalent dose of 10 mg/kg of HCPT for 14 days by H and E staining based analysis; type: functional, organism-based; details: route iv, time 14.0 day
# [26] = Prodrug stability in 100 mM H2O2 assessed as compound remaining at 18 uM measured after 2 hrs by RP-HPLC analysis; type: ADME
# 4T1 [27] = experiment: Antitumor activity against mouse 4T1 cells implanted in BALB/c mouse assessed as reduction in tumor size administered intravenously once every two days at equivalent dose of 10 mg/kg of HCPT for 14 days; type: functional, organism-based; details: route iv, time 14.0 day
# [28] = Cmax in Sprague-Dawley rat at 24 mg/kg, iv by HPLC-MS analysis; type: ADME, organism-based; details: in vivo
# [29] = AUC in Sprague-Dawley rat assessed as fold change at 24 mg/kg, iv by HPLC-MS analysis relative to HCPT; type: ADME, organism-based; details: in vivo
# [30] = Terminal elimination half life in Sprague-Dawley rat at 24 mg/kg, iv by HPLC-MS analysis; type: ADME, organism-based; details: in vivo, read-out: LambdaZ (converted)
# [31] = Prodrug release in human MDA-MB-231 cells assessed as Nap release at 20 uM measured after 2 hrs by confocal microscopy; type: ADME, cell-based; details: mda-mb-231, 2 h
# [32] = Prodrug release in human MCF-10A cells assessed as Nap release at 20 uM measured after 2 hrs by confocal microscopy; type: ADME, cell-based
# [33] = Prodrug release in mouse 4T1 cells assessed as Nap release at 20 uM measured after 2 hrs by confocal microscopy; type: ADME, cell-based; details: 4t1, 2 h
# [34] = Drug internalization in mouse 4T1 cells assessed as fold change in green fluorescence in cytoplasm at 20 uM measured after 8 hrs by flow cytometry relative to TD-Nap; type: ADME, cell-based; details: 4t1, 8 h
# [35] = Prodrug release in human MCF7 cells assessed as Nap release at 20 uM measured after 2 hrs by confocal microscopy; type: ADME, cell-based; details: mcf7, 2 h
# 4T1 [36] = experiment: Induction of intracellular ROS generation in mouse 4T1 cells assessed as fold increase in DCF fluorescence at 0.5 uM incubated for 24 hrs by DCFH-DA probe based CLSM analysis relative to control; type: functional
# [37] = Drug localization in mitochondria of mouse 4T1 cells at 20 uM measured after 2 hrs by flow cytometry; type: ADME; details: 4t1, 2 h
# [38] = Drug internalization in mouse 4T1 cells assessed as fold change in green fluorescence in cytoplasm at 20 uM measured after 8 hrs by flow cytometry relative to K-Nap; type: ADME, cell-based; details: 4t1, 8 h
# [39] = Cytotoxicity against human MCF-10A cells assessed as cell viability at 5 to 50 uM incubated for 24 hrs by CCK8 assay relative to control; type: toxicity, cell-based; details: dose 5-50 µM, read-out: Activity
# 4T1 [40] = experiment: Cytotoxicity against mouse 4T1 cells assessed as cell viability at 5 to 50 uM incubated for 24 hrs by CCK8 assay relative to control; type: functional; details: dose 5-50 µM
# [41] = Prodrug stability in 5 uM to 5 mM GSH assessed as compound remaining at 20 uM measured for 24 hrs by RP-HPLC analysis; type: ADME
Structure (SMILES),Drug uptake [1],Drug uptake [2],Drug uptake [4],Drug uptake [5],IC50 (4T1 [6]) [µM],IC50 (PC-3) [µM],IC50 (U-87 MG) [µM],IC50 (MCF7) [µM],IC50 (MDA-MB-231) [µM],IC50 (HepG2) [µM],IC50 at 48 h [7] [µM],Activity (4T1 [8]),Activity [9],Activity [10],inhibition (4T1 [11]),Activity (4T1 [12]),Activity [13],Activity (4T1 [14]) [%],further results
CCCN1C(=O)c2cccc3c(OC(=O)CCCSC(C)(C)SCCCC(=O)OCC)ccc(c23)C1=O,Active,Active,Active,Active,–,–,–,–,–,–,–,–,–,–,–,–,–,–,Drug uptake [3]: Active
CCCN1C(=O)c2cccc3c(OC(=O)CCC(=O)OCC/C(SSCC(C)C)=C(\C)N(C)C=O)ccc(c23)C1=O,Active,Active,Active,Not_active,–,–,–,–,–,–,–,–,–,–,–,–,–,–,–
C/C(=C(\CCOC(=O)CCCSC(C)(C)SCCCC(=O)O)SSCC(C)C)N(C)C=O,–,–,–,–,> 100,> 100,> 100,> 100,> 100,> 100,> 100,–,–,–,–,–,–,–,–
CC[C@@]1(O)C(=O)OCc2c1cc1n(c2=O)Cc2cc3cc(OC(=O)CCC(=O)OCC/C(SSCC(C)C)=C(\C)N(C)C=O)ccc3nc2-1,–,–,–,–,5.34,3.45,5.48,7.32,10.4,5.32,10.5,Active,Non-toxic,Non-toxic,Active; Moderate Effect Observed,inactive,Non-toxic,~25,–
CC[C@@]1(O)C(=O)OCc2c1cc1n(c2=O)Cc2cc3cc(O)ccc3nc2-1 [HYDROXYCAMPTOTHECIN],–,–,–,–,1.71,1.46,2.43,1.09,3.12,0.95,3.17,Active; Moderate Activity Observed,–,–,–,Active; Moderate Elevations Observed,–,~34,Activity [15]: Toxic; Cmax [16]: 1950 ng/mL; inhibition (4T1 [17]): Active; Moderate Effect Observed; AUC [18]: 1020 ng·h/mL
CC[C@@]1(O)C(=O)OCc2c1cc1n(c2=O)Cc2cc3cc(OC(=O)CCCSC(C)(C)SCCCC(=O)OCC/C(SSCC(C)C)=C(\C)N(C)C=O)ccc3nc2-1,–,–,–,–,0.96,1.39,4.05,1.02,5.43,1.01,33.3,Active; Most Potential Among Tested Compounds,Non-toxic,Non-toxic,Active; Most Pronounced Effect Observed Among Tested Compounds,–,Non-toxic,11,Stability [19]: < 12%; AUC [20]: 2720 ng·h/mL; Activity (4T1 [21]): Active; Lowest Tumor Weigth Observed Among Tested Compounds; Stability [22]: <= 10%; Stability [23]: 84.8%; fold change (FC) [24]: 4; Activity (4T1 [25]): Active; Stability [26]: Unstable; Activity (4T1 [27]): Active; Exhibited Smallest Tumor Among Tested Compounds; Cmax [28]: 7450 ng/mL; fold change (FC) [29]: 2; half-life [30]: 3.24 h
CCCN1C(=O)c2cccc3c(OC(=O)CCCSC(C)(C)SCCCC(=O)OCC/C(SSCC(C)C)=C(\C)N(C)C=O)ccc(c23)C1=O,Active,Active,Active,Active,–,–,–,–,–,–,–,–,–,–,–,–,–,–,"Drug metabolism [31]: metabolite_detected; Drug metabolism [32]: metabolite_notdetected; Drug metabolism [33]: metabolite_detected; fold change (FC) [34]: ~ 2; Drug metabolism [35]: metabolite_detected; Drug uptake [3]: Active; fold change (FC) (4T1 [36]): ~6.5; Drug uptake [37]: Active; fold change (FC) [38]: ~ 2; viability at 24 h, 50 µM [39]: > 90%; Activity (4T1 [40]): >90%; Stability [41]: Stable"
CCOC(=O)CCCSC(C)(C)SCCCC(=O)Oc1ccc2nc3c(cc2c1)Cn1c-3cc2c(c1=O)COC(=O)[C@]2(O)CC,–,–,–,–,3.78,1.93,6.24,4.21,7.02,1.47,20.7,Active,Non-toxic,Non-toxic,Active; Moderate Effect Observed,inactive,Non-toxic,~34,–
